Experimental data: patent US11072624B2, “Synthesis of nucleoside 5′-triphosphates and their derivatives” (priority 2010, dated 2021)

Molecular target: T1, Klenow fragment exo(−), Kf- (Escherichia coli, UniProt P00582, D355A/E357A)
T1 construct: into DNA by Klenow fragment exo(−), Kf-
Test: Primer extension reaction of chemically synthesized dNTPs into DNA by Klenow polymerase
Type: biochemical
Settings: single test dNTP plus the three other standard dNTPs (lanes 4, 6, 8, 10); 0.1 mM dNTPs, 37° C., 1 h, 19% PAGE
Method: Primer, P was end labeled using polynucleotide kinase and [γ-^32P] ATP. Polymerization reactions were performed with 3.5 μM primer and 5 μM template and equimolar ratios of all dNTPs (0.1 mM) and incubated with 0.05 […] at 37° C. for 1 h. Reaction was analyzed by 19% polyacrylamide gel electrophoresis. Lane 1: primer, P and all dNTPs but no Kf-; lane 2: P plus template, T and all dNTPs (Epicentre, Inc.) with Kf-; lane 3: P/T and all dNTPs except dATP with Kf-; lane 4: P/T and test dATP, dCTP, dGTP, and TTP with Kf-; lane 5: P/T and all dNTPs except dCTP with Kf-; lane 6: P/T and dATP, test dCTP, dGTP and TTP with Kf-; lane 7: P/T and all dNTPs except dGTP with Kf-; lane 8: P/T and dATP, dCTP, test dGTP and TTP with Kf-; lane 9: P/T and all dNTPs except TTP with Kf-; lane 10: P/T and dATP, dCTP, dGTP and test TTP with Kf-; lane 11: P/T and all test dNTPs with Kf-; lane 12: primer, P.
For the polymerase extension reaction, the primer (SEQ ID NO: 1; P: 5′-d-GCGTAATACGACTCACTATAG-3′) was radiolabeled with [γ-^32P] ATP at the 5′-position and incubated with the template (SEQ ID NO: 2; 3′-d-[…]-5′) to allow examination of a test nucleotide (dATP, dCTP, dGTP or TTP), see FIG. 3. The polymerase reaction was conducted in the presence of the Klenow polymerase (0.05 U/μL). […] More convincingly, in a reaction containing each of the test triphosphates (lane 11), full-length product (SEQ ID NO: 3) similar to the standard polymerization reaction (lane 2) was observed.

T1 sequence (P00582 324-928 D355A/E357A): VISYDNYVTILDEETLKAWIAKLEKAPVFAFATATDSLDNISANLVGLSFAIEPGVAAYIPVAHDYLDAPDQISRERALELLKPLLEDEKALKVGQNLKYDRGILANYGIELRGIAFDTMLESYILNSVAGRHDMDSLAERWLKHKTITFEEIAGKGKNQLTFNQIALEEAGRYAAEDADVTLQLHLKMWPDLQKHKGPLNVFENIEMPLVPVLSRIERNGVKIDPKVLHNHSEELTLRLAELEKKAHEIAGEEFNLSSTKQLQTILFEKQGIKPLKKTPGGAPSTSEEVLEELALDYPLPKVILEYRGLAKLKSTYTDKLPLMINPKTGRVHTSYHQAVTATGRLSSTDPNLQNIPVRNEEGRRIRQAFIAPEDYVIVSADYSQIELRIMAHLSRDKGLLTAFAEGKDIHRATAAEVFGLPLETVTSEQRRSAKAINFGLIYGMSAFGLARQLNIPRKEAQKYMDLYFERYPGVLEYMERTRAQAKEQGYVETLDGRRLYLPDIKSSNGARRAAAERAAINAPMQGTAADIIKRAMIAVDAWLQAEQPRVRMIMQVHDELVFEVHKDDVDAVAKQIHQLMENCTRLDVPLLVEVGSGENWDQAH

Row | Compound | primer extension to the expected full-length (test dNTP as substrate for the Klenow polymerase)
1 | Cc1cn([C@H]2C[C@H](O)[C@@H](COP(=O)(O)OP(=O)(O)OP(=O)(O)O)O2)c(=O)[nH]c1=O [TTP] | efficiently extended the primer
2 | Nc1ncnc2c1ncn2[C@H]1C[C@H](O)[C@@H](COP(=O)(O)OP(=O)(O)OP(=O)(O)O)O1 [dATP] | efficiently extended the primer
3 | Nc1ccn([C@H]2C[C@H](O)[C@@H](COP(=O)(O)OP(=O)(O)OP(=O)(O)O)O2)c(=O)n1 [dCTP] | efficiently extended the primer
4 | Nc1nc2c(ncn2[C@H]2C[C@H](O)[C@@H](COP(=O)(O)OP(=O)(O)OP(=O)(O)O)O2)c(=O)[nH]1 [dGTP] | efficiently extended the primer
